Key:
ECHCG [1] = test: Post-emergence herbicidal action; assay type: in vivo, Echinochloa crus-galli; conditions: for Herbicidal action against ECHCG: 5 g a.i./ha, comparative experiment; for Post-emergence action against ECHCG: assessed after about 3 weeks
Description: (§1) Seeds of monocotyledonous and dicotyledonous weed and crop plants are laid out in sandy loam soil in wood-fibre pots, covered with soil and cultivated in a greenhouse under good growth conditions. 2 to 3 weeks after sowing, the test plants are treated at the one-leaf stage. The compounds of the invention, formulated in the form of wettable powders (WP) or as emulsion concentrates (EC), are then sprayed onto the green parts of the plants in the form of an aqueous suspension or emulsion at a water application rate equating to 600 to 800 l/ha, with addition of 0.2% wetting agent. After the test plants have been left to stand in the greenhouse under optimal growth conditions for about 3 weeks, the action of the preparations is assessed visually in comparison to untreated controls (herbicidal action in percent (%): 100% activity=the plants have died, 0% activity=like control plants). […] The tables below illustrate, in an illustrative manner, the post-emergence herbicidal action of the compounds of the invention, the herbicidal activity being stated in percent. In the experiments that follow, the herbicidal action of the compounds of the invention and that of the corresponding known racemic compounds closest from WO2012126932 and WO2018202535 were compared under the above-specified conditions by the pre-emergence and post-emergence method. The example numbers given in the tables relate to the compounds disclosed in the respective documents.

ORYZA = test: Post-emergence damage to crop plants; assay type: in vivo, Oryza sativa; conditions: 5 g a.i./ha, comparative experiment
Description: as §1

GLXMA = test: Pre-emergence damage to crop plants; assay type: in vivo, Glycine max; conditions: 80 g a.i./ha, comparative experiment
Description: (§2) Seeds of monocotyledonous and dicotyledonous weed plants and crop plants are laid out in sandy loam soil in wood-fibre pots and covered with soil. The compounds of the invention, formulated in the form of wettable powders (WP) or as emulsion concentrates (EC), are then applied to the surface of the covering soil in the form of an aqueous suspension or emulsion at a water application rate equivalent to 600 to 800 l/ha, with addition of 0.2% wetting agent. After the treatment, the pots are placed in a greenhouse and kept under good growth conditions for the trial plants. The damage to the test plants is scored visually after a test period of 3 weeks by comparison with untreated controls (herbicidal activity in percent (%): 100% activity=the plants have died, 0% activity=like control plants). […] The tables below illustrate, in an illustrative manner, the post-emergence herbicidal action of the compounds of the invention, the herbicidal activity being stated in percent. In the experiments that follow, the herbicidal action of the compounds of the invention and that of the corresponding known racemic compounds closest from WO2012126932 and WO2018202535 were compared under the above-specified conditions by the pre-emergence and post-emergence method. The example numbers given in the tables relate to the compounds disclosed in the respective documents.

TRZAS [2] = test: Pre-emergence damage to crop plants; assay type: in vivo, Triticum aestiva; conditions: comparative experiment
Description: as §2

ECHCG [3] = test: Pre-emergence herbicidal action; assay type: in vivo, Echinochloa crus-galli; conditions: scored after 3 weeks
Description: as §2, with “percent.” for “percent. In the experiments that follow, the herbicidal action of the compounds of the invention and that of the corresponding known racemic compounds closest from WO2012126932 and WO2018202535 were compared under the above-specified conditions by the pre-emergence and post-emergence method. The example numbers given in the tables relate to the compounds disclosed in the respective documents.”

AMARE [4] = test: Post-emergence herbicidal action; assay type: in vivo, Amaranthus retroflexus; conditions: assessed after about 3 weeks
Description: as §1, with “percent.” for “percent. In the experiments that follow, the herbicidal action of the compounds of the invention and that of the corresponding known racemic compounds closest from WO2012126932 and WO2018202535 were compared under the above-specified conditions by the pre-emergence and post-emergence method. The example numbers given in the tables relate to the compounds disclosed in the respective documents.”

ALOMY = test: Pre-emergence herbicidal action; assay type: in vivo, Alopecurus myosuroides; conditions: 80 g/ha, scored after 3 weeks
Description: as §2

VIOTR [5] = test: Post-emergence herbicidal action; assay type: in vivo, Viola tricolor; conditions: assessed after about 3 weeks
Description: as §1

MATIN [6] = test: Pre-emergence herbicidal action; assay type: in vivo, Matricaria inodora; conditions: scored after 3 weeks
Description: as §2

VERPE [7] = test: Post-emergence herbicidal action; assay type: in vivo, Veronica persica; conditions: assessed after about 3 weeks
Description: as §1

AVEFA = test: Pre-emergence herbicidal action; assay type: in vivo, Avena fatua; conditions: 80 g/ha, scored after 3 weeks
Description: as §2

MATIN [8] = test: Post-emergence herbicidal action; assay type: in vivo, Matricaria inodora; conditions: assessed after about 3 weeks
Description: as §1, with “percent.” for “percent. In the experiments that follow, the herbicidal action of the compounds of the invention and that of the corresponding known racemic compounds closest from WO2012126932 and WO2018202535 were compared under the above-specified conditions by the pre-emergence and post-emergence method. The example numbers given in the tables relate to the compounds disclosed in the respective documents.”

POLCO [9] = test: Pre-emergence herbicidal action; assay type: in vivo, Polygonum convolvulus; conditions: 80 g/ha, scored after 3 weeks
Description: as §2

AMARE [10] = test: Pre-emergence herbicidal action; assay type: in vivo, Amaranthus retroflexus; conditions: scored after 3 weeks
Description: as §2, with “percent.” for “percent. In the experiments that follow, the herbicidal action of the compounds of the invention and that of the corresponding known racemic compounds closest from WO2012126932 and WO2018202535 were compared under the above-specified conditions by the pre-emergence and post-emergence method. The example numbers given in the tables relate to the compounds disclosed in the respective documents.”

VIOTR [11] = test: Pre-emergence herbicidal action; assay type: in vivo, Viola tricolor; conditions: scored after 3 weeks
Description: as §2, with “percent.” for “percent. In the experiments that follow, the herbicidal action of the compounds of the invention and that of the corresponding known racemic compounds closest from WO2012126932 and WO2018202535 were compared under the above-specified conditions by the pre-emergence and post-emergence method. The example numbers given in the tables relate to the compounds disclosed in the respective documents.”

PHBPU = test: Post-emergence herbicidal action; assay type: in vivo, Pharbitis purpurea; conditions: assessed after about 3 weeks
Description: as §1, with “percent.” for “percent. In the experiments that follow, the herbicidal action of the compounds of the invention and that of the corresponding known racemic compounds closest from WO2012126932 and WO2018202535 were compared under the above-specified conditions by the pre-emergence and post-emergence method. The example numbers given in the tables relate to the compounds disclosed in the respective documents.”

LOLRI = test: Pre-emergence herbicidal action; assay type: in vivo, Lolium rigidum; conditions: 80 g/ha, scored after 3 weeks
Description: as §2

SETVI [12] = test: Pre-emergence herbicidal action; assay type: in vivo, Setaria viridis; conditions: scored after 3 weeks
Description: as §2

POLCO [13] = test: Post-emergence herbicidal action; assay type: in vivo, Polygonum convolvulus; conditions: 20 g/ha, assessed after about 3 weeks
Description: as §1, with “percent.” for “percent. In the experiments that follow, the herbicidal action of the compounds of the invention and that of the corresponding known racemic compounds closest from WO2012126932 and WO2018202535 were compared under the above-specified conditions by the pre-emergence and post-emergence method. The example numbers given in the tables relate to the compounds disclosed in the respective documents.”

VERPE [14] = test: Pre-emergence herbicidal action; assay type: in vivo, Veronica persica; conditions: scored after 3 weeks
Description: as §2

SETVI [15] = test: Post-emergence herbicidal action; assay type: in vivo, Setaria viridis; conditions: assessed after about 3 weeks
Description: as §1

ZEAMX = test: Pre-emergence damage to crop plants; assay type: in vivo, Zea mays; conditions: comparative experiment
Description: as §2

DIGSA [16] = test: Pre-emergence herbicidal action; assay type: in vivo, Digitaria sanguinalis; conditions: scored after 3 weeks
Description: as §2, with “percent.” for “percent. In the experiments that follow, the herbicidal action of the compounds of the invention and that of the corresponding known racemic compounds closest from WO2012126932 and WO2018202535 were compared under the above-specified conditions by the pre-emergence and post-emergence method. The example numbers given in the tables relate to the compounds disclosed in the respective documents.”

TRZAS [17] = test: Post-emergence damage to crop plants; assay type: in vivo, Triticum aestiva; conditions: comparative experiment
Description: as §1

BRSNW = test: Pre-emergence damage to crop plants; assay type: in vivo, Brassica napus; conditions: 20 g a.i./ha, comparative experiment
Description: as §2

DIGSA [18] = test: Post-emergence herbicidal action; assay type: in vivo, Digitaria sanguinalis; conditions: assessed after about 3 weeks
Description: as §1

STEME [19] = test: Post-emergence herbicidal action; assay type: in vivo, Stellaria media; conditions: 20 g/ha, assessed after about 3 weeks
Description: as §1

STEME [20] = test: Pre-emergence herbicidal action; assay type: in vivo, Stellaria media; conditions: scored after 3 weeks
Description: as §2

Compound	Herbicidal action against ECHCG (ECHCG [1]) [%]	Damage to ORYZA (ORYZA) [%]	Damage to GLXMA (GLXMA) [%]	Damage to TRZAS (TRZAS [2]; 20 g a.i./ha) [%]	Damage to TRZAS (TRZAS [2]; 80 g a.i./ha) [%]	Pre-emergence action against ECHCG (ECHCG [3]; 20 g/ha) [%]	Pre-emergence action against ECHCG (ECHCG [3]; 80 g/ha) [%]	Post-emergence action against AMARE (AMARE [4]; 5 g/ha) [%]	Post-emergence action against AMARE (AMARE [4]; 20 g/ha) [%]	Post-emergence action against ECHCG (ECHCG [1]; 5 g/ha) [%]	Post-emergence action against ECHCG (ECHCG [1]; 20 g/ha) [%]	Post-emergence action against VIOTR (VIOTR [5]; 20 g/ha) [%]	Pre-emergence action against MATIN (MATIN [6]; 80 g/ha) [%]	Post-emergence action against MATIN (MATIN [8]; 20 g/ha) [%]	Pre-emergence action against AMARE (AMARE [10]; 20 g/ha) [%]	Pre-emergence action against AMARE (AMARE [10]; 80 g/ha) [%]	Pre-emergence action against VIOTR (VIOTR [11]; 20 g/ha) [%]	Pre-emergence action against VIOTR (VIOTR [11]; 80 g/ha) [%]	Post-emergence action against PHBPU (PHBPU; 20 g/ha) [%]	Pre-emergence action against SETVI (SETVI [12]; 80 g/ha) [%]	further results
C[S+]([O-])c1c(C(F)F)ccc(C(=O)Nc2nnco2)c1Cl (racemic) [Racemate, known from WO2018202535, 2-chloro-N-(1,3,4-oxadiazol-2-yl)-3-[(rac)-methylsulfinyl]-4-(difluoromethyl)benzamide, reference compound]	70	60	80	70	100																
C[S+]([O-])c1c(C(F)F)ccc(C(=O)Nc2nnco2)c1Cl (stereo in doubt) [Example I-2, 2-chloro-N-(1,3,4-oxadiazol-2-yl)-3-[(S)-methylsulfinyl]-4-(difluoromethyl)benzamide]	90	0	30	20	70	100	100	100	100	90	90	100	100	90	100	100	100	100	90	100	Pre-emergence action against ALOMY (ALOMY): 90%; Post-emergence action against VIOTR (VIOTR [5]; 5 g/ha): 90%; Pre-emergence action against MATIN (MATIN [6]; 20 g/ha): 100%; Post-emergence action against VERPE (VERPE [7]; 5 g/ha): 90%; Post-emergence action against VERPE (VERPE [7]; 20 g/ha): 100%; Pre-emergence action against AVEFA (AVEFA): 100%; Post-emergence action against MATIN (MATIN [8]; 5 g/ha): 90%; Pre-emergence action against POLCO (POLCO [9]): 90%; Pre-emergence action against LOLRI (LOLRI): 90%; Pre-emergence action against SETVI (SETVI [12]; 20 g/ha): 100%; Post-emergence action against POLCO (POLCO [13]): 80%; Pre-emergence action against VERPE (VERPE [14]; 20 g/ha): 80%; Pre-emergence action against VERPE (VERPE [14]; 80 g/ha): 80%; Post-emergence action against SETVI (SETVI [15]; 5 g/ha): 90%; Post-emergence action against SETVI (SETVI [15]; 20 g/ha): 90%
Cc1c(C(=O)Nc2nnco2)ccc(C(F)(F)F)c1[S+](C)[O-] (stereo in doubt) [Example I-3, 2-methyl-N-(1,3,4-oxadiazol-2-yl)-3-[(S)-methylsulfinyl]-4-(trifluoromethyl)benzamide]		30	50	0	30	90	100	90	90	80	90	90	90	80	100	100	90	100	80	90	Damage to ZEAMX (ZEAMX; 20 g a.i./ha): 0%; Damage to ZEAMX (ZEAMX; 80 g a.i./ha): 0%; Pre-emergence action against DIGSA (DIGSA [16]; 20 g/ha): 100%; Pre-emergence action against DIGSA (DIGSA [16]; 80 g/ha): 100%; Damage to TRZAS (TRZAS [17]; 5 g a.i./ha): 20%; Damage to TRZAS (TRZAS [17]; 20 g a.i./ha): 30%; Damage to BRSNW (BRSNW): 70%; Post-emergence action against DIGSA (DIGSA [18]; 5 g/ha): 90%; Post-emergence action against DIGSA (DIGSA [18]; 20 g/ha): 90%; Post-emergence action against PHBPU (PHBPU; 5 g/ha): 80%; Post-emergence action against STEME (STEME [19]): 80%; Post-emergence action against SETVI (SETVI [15]; 20 g/ha): 90%; Pre-emergence action against STEME (STEME [20]; 20 g/ha): 80%; Pre-emergence action against STEME (STEME [20]; 80 g/ha): 100%

Source: patent US20240174624A1, “CHIRAL N-(1,3,4-OXADIAZOLE-2-YL)PHENYL CARBOXYLIC ACID AMIDES AND THEIR USE AS HERBICIDES” (Bayer Aktiengesellschaft, priority 2021, published 2024)
